Reference: patent publication US12122776B2, “Tetracyclic compounds and uses thereof” (Gilead Sciences, Inc., priority 2020, dated 2024)
Read-outs that look alike come from different tables or passages of the source.

Experiments:
Type in all cases: cell-based
HIV-1 (IIIB) = assay: Antiviral assay in MT-4 cells; conditions: Human immunodeficiency virus 1, MT4, 120 h; replication of HIV-1 (IIIB) in MT-4 cells, 5 days incubation, Cell Titer Glo
Description: Example 24: HIV MT-4 Antiviral and Cytotoxicity Assay
Antiviral Assay in MT-4 Cells
Compounds were tested in a high-throughput 384-well assay format for their ability to inhibit the replication of HIV-1 (IIIB) in MT-4 cells. Compounds were serially diluted (1:3) in DMSO on 384-well polypropylene plates and further diluted 200-fold into complete RPMI media (10% FBS, 1% P/S) using the Biotek Micro Flow and Labcyte ECHO acoustic dispenser. Each plate contained up to 8 test compounds, with negative (No Drug Control) and 5 μM AZT positive controls. MT-4 cells were pre-infected with 10 μL of either RPMI (mock-infected) or a fresh 1:250 dilution of HIV-1 IIIB concentrated virus stock. Infected and uninfected MT-4 cells were further diluted in complete RPMI media and added to each plate using a Micro Flow dispenser. After 5 days incubation in a humidified and temperature controlled incubator (37° C.), Cell Titer Glo (Promega) was added to the assay plates and chemiluminescence read using an Envision plate-reader. EC50 values were defined as the compound concentration that causes a 50% decrease in luminescence signal, and were calculated using a sigmoidal dose-response model to generate curve fits.

[1] = Cytotoxicity assay in MT-4 cells; conditions: human; uninfected MT-4 cells, 5 days incubation, Cell Titer Glo
Description: Cytotoxicity Assay in MT-4 Cells Assays were performed as above except uninfected MT-4 cells were added to each well containing test compound. In addition, 10 μM puromycin was added to the last column of each assay plate to assess a base level of cytotoxicity.

pLai RLuc reporter virus = assay: HIV MT-4 serum shift antiviral reporter assay; conditions: Human immunodeficiency virus 1, MT4, 72 h
Description: Example 25: HIV MT-4 Serum Shift Antiviral Reporter Assay
To quantify the amount of protein binding to human serum, compounds were serially diluted (1:3) in DMSO and acoustically transferred onto 384-well assay plates via a Labcyte ECHO robot. Each plate contained up to 8 test compounds, including negative and positive controls, (DMSO, 5 μM AZT respectively). Assay plates were prepared in duplicate, and tested in either CCM (cell culture media) or HS/CCM (human serum/cell culture media). MT-4 cells were first pre-infected with pLai RLuc reporter virus for 2 h at 37° C., then further diluted in either CCM (RPMI media, 10% FBS, 1% P/S) or HS/CCM (RPMI media, 10% FBS, 50% HS, 1% P/S), and subsequently added to each plate using a Biotek Micro Flow dispenser. After a 72-h incubation in a humidified and temperature controlled incubator (37° C.), Renilla Glo (Promega) was added to all assay plates and chemiluminescence read using an Envision plate-reader. EC50 values were defined as the compound concentration that causes a 50% decrease in luminescence signal, and were calculated using a sigmoidal dose-response model to generate curve fits. To determine the amount of protein binding, EC50 fold shifts (or EC50 shifts) were calculated by dividing EC50 (HS/CCM)/EC50 (CCM).

[2] = read-out: Antiviral Serum Shift RLuc 50% HS
[3] = read-out: Antiviral Serum Shift RLuc CCM

## CO[C@H]1C[C@]23CCCCN(C2)C(=O)c2c(O)c(=O)c(C(=O)NCc4c(F)cc(F)cc4F)c1n23 (single isomer, unassigned) [Compound 12-2]
HIV-1 (IIIB)
  EC50: 3.26 nM
[1]
  CC50 at 5 days: 11100 nM
pLai RLuc reporter virus; [2]
  EC50: 98.4 nM
pLai RLuc reporter virus; [3]
  EC50: 1.14 nM

## O=C(NCc1ccc(F)c(Cl)c1F)c1c2n3c(c(O)c1=O)C(=O)N1CCCC[C@@]3(C[C@H]2O)C1 (single isomer, unassigned) [Compound 14-1]
HIV-1 (IIIB)
  EC50: 1.1 nM
[1]
  CC50 at 5 days: 2310 nM
pLai RLuc reporter virus; [2]
  EC50: 26 nM
pLai RLuc reporter virus; [3]
  EC50: 0.22 nM

## O=C(NCc1ccc(F)c(Cl)c1F)c1c2n3c(c(O)c1=O)C(=O)N1CCCC[C@@]3(C[C@@H]2O)C1 (single isomer, unassigned) [Compound 14-2]
HIV-1 (IIIB)
  EC50: 0.73 nM
[1]
  CC50 at 5 days: 2110 nM
pLai RLuc reporter virus; [2]
  EC50: 11 nM
pLai RLuc reporter virus; [3]
  EC50: 0.41 nM

## C[C@]1(O)C[C@@]23CCCCN(C2)C(=O)c2c(O)c(=O)c(C(=O)NCc4c(F)cc(F)cc4F)c1n23 (single isomer, unassigned) [Compound 15]
HIV-1 (IIIB)
  EC50: 1.2 nM
[1]
  CC50 at 5 days: 3730 nM
pLai RLuc reporter virus; [2]
  EC50: 51 nM
pLai RLuc reporter virus; [3]
  EC50: 0.29 nM

## C[C@H]1C=CC[C@]23C[C@@H](O)c4c(C(=O)NCc5c(F)cc(F)cc5F)c(=O)c(O)c(n42)C(=O)N1C3 (single isomer, unassigned) [Compound 21-1]
HIV-1 (IIIB)
  EC50: 1.04 nM
[1]
  CC50 at 5 days: 4840 nM
pLai RLuc reporter virus; [2]
  EC50: 27 nM
pLai RLuc reporter virus; [3]
  EC50: 0.26 nM

## C[C@H]1C=CC[C@]23C[C@H](O)c4c(C(=O)NCc5c(F)cc(F)cc5F)c(=O)c(O)c(n42)C(=O)N1C3 (single isomer, unassigned) [Compound 21-2]
HIV-1 (IIIB)
  EC50: 0.8 nM
[1]
  CC50 at 5 days: 5370 nM
pLai RLuc reporter virus; [2]
  EC50: 12 nM
pLai RLuc reporter virus; [3]
  EC50: 0.27 nM

## O=C(NCc1c(F)cc(F)cc1F)c1c2n3c(c(O)c1=O)C(=O)N1CCCC[C@@]3(CC2)C1 [Compound 1, (6aR)-11-hydroxy-1,10-dioxo-N-(2,4,6-trifluorobenzyl)-1,3,4,5,6,7,8,10-octahydro-2,6a-methano[1,4]diazonino[9,1,2-cd]indolizine-9-carboxamide]
HIV-1 (IIIB)
  EC50: 1.35 nM
[1]
  CC50 at 5 days: 4300 nM
pLai RLuc reporter virus; [2]
  EC50: 8.71 nM
pLai RLuc reporter virus; [3]
  EC50: 0.299 nM

## O=C(NCc1c(F)cc(F)cc1F)c1c2n3c(c(O)c1=O)C(=O)N1CCCC[C@]3(CC2)C1 [Compound 2, (6aS)-11-hydroxy-1,10-dioxo-N-(2,4,6-trifluorobenzyl)-1,3,4,5,6,7,8,10-octahydro-2,6a-methano[1,4]diazonino[9,1,2-cd]indolizine-9-carboxamide]
HIV-1 (IIIB)
  EC50: 2.26 nM
[1]
  CC50 at 5 days: 6160 nM
pLai RLuc reporter virus; [2]
  EC50: 20.8 nM
pLai RLuc reporter virus; [3]
  EC50: 0.351 nM

## O=C(NCc1ccc(F)cc1F)c1c2n3c(c(O)c1=O)C(=O)N1CCCC[C@@]3(CC2)C1 [Compound 3, (6aR)—N-(2,4-difluorobenzyl)-11-hydroxy-1,10-dioxo-1,3,4,5,6,7,8,10-octahydro-2,6a-methano[1,4]diazonino[9,1,2-cd]indolizine-9-carboxamide]
HIV-1 (IIIB)
  EC50: 1.78 nM
[1]
  CC50 at 5 days: 4940 nM
pLai RLuc reporter virus; [2]
  EC50: 3.11 nM
pLai RLuc reporter virus; [3]
  EC50: 0.175 nM

## O=C(NCc1ccc(F)cc1F)c1c2n3c(c(O)c1=O)C(=O)N1CCCC[C@]3(CC2)C1 [Compound 4, (6aS)—N-(2,4-difluorobenzyl)-11-hydroxy-1,10-dioxo-1,3,4,5,6,7,8,10-octahydro-2,6a-methano[1,4]diazonino[9,1,2-cd]indolizine-9-carboxamide]
HIV-1 (IIIB)
  EC50: 3.09 nM
[1]
  CC50 at 5 days: 5140 nM
pLai RLuc reporter virus; [2]
  EC50: 32.3 nM
pLai RLuc reporter virus; [3]
  EC50: 0.72 nM

## O=C(NCc1cccc(Cl)c1F)c1c2n3c(c(O)c1=O)C(=O)N1CCCC[C@@]3(CC2)C1 [Compound 5, (6aR)—N-(3-chloro-2-fluorobenzyl)-11-hydroxy-1,10-dioxo-1,3,4,5,6,7,8,10-octahydro-2,6a-methano[1,4]diazonino[9,1,2-cd]indolizine-9-carboxamide]
HIV-1 (IIIB)
  EC50: 2.24 nM
[1]
  CC50 at 5 days: 4040 nM
pLai RLuc reporter virus; [2]
  EC50: 6.04 nM
pLai RLuc reporter virus; [3]
  EC50: 0.278 nM

## O=C1c2c(O)c(=O)c(-c3nnc(Cc4c(F)cc(F)cc4F)s3)c3n2C2(CCCCN1C2)CC3 (stereo not shown) [Compound 7, 11-hydroxy-9-(5-(2,4,6-trifluorobenzyl)-1,3,4-thiadiazol-2-yl)-3,4,5,6,7,8-hexahydro-2,6a-methano[1,4]diazonino[9,1,2-cd]indolizine-1,10-dione]
HIV-1 (IIIB)
  EC50: 3.8 nM
[1]
  CC50 at 5 days: 3800 nM
pLai RLuc reporter virus; [2]
  EC50: 60.8 nM
pLai RLuc reporter virus; [3]
  EC50: 0.997 nM

## C[C@@]1(O)C[C@]23CCCCN(C2)C(=O)c2c(O)c(=O)c(C(=O)NCc4c(F)cc(F)cc4F)c1n23 [Compound 17, (6aR,8R)-8,11-dihydroxy-8-methyl-1,10-dioxo-N-(2,4,6-trifluorobenzyl)-1,3,4,5,6,7,8,10-octahydro-2,6a-methano[1,4]diazonino[9,1,2-cd]indolizine-9-carboxamide]
HIV-1 (IIIB)
  EC50: 1.2 nM
[1]
  CC50 at 5 days: 3170 nM
pLai RLuc reporter virus; [2]
  EC50: 1.1 nM
pLai RLuc reporter virus; [3]
  EC50: 0.13 nM

## O=C(NCc1c(F)cc(F)cc1F)c1c2n3c(c(O)c1=O)C(=O)N1CCCC[C@@]3(CC2CO)C1 (stereo partly drawn) [Compound 18, (6aR)-11-hydroxy-8-(hydroxymethyl)-1,10-dioxo-N-(2,4,6-trifluorobenzyl)-1,3,4,5,6,7,8,10-octahydro-2,6a-methano[1,4]diazonino[9,1,2-cd]indolizine-9-carboxamide]
HIV-1 (IIIB)
  EC50: 10.7 nM
[1]
  CC50 at 5 days: 25200 nM
pLai RLuc reporter virus; [2]
  EC50: 0.97 nM
pLai RLuc reporter virus; [3]
  EC50: 0.87 nM

## C[C@H]1C=CC[C@]23CCc4c(C(=O)NCc5c(F)cc(F)cc5F)c(=O)c(O)c(n42)C(=O)N1C3 [Compound 20, (3S,6aS)-11-hydroxy-3-methyl-1,10-dioxo-N-(2,4,6-trifluorobenzyl)-1,3,6,7,8,10-hexahydro-2,6a-methano[1,4]diazonino[9,1,2-cd]indolizine-9-carboxamide]
HIV-1 (IIIB)
  EC50: 0.83 nM
[1]
  CC50 at 5 days: 3340 nM
pLai RLuc reporter virus; [2]
  EC50: 16 nM
pLai RLuc reporter virus; [3]
  EC50: 0.31 nM

## CO[C@H]1CC[C@H](C)N2C[C@]13CCc1c(C(=O)NCc4c(F)cc(F)cc4F)c(=O)c(O)c(n13)C2=O [Compound 23-2, (3S,6S,6aR)-11-hydroxy-6-methoxy-3-methyl-1,10-dioxo-N-(2,4,6-trifluorobenzyl)-1,3,4,5,6,7,8,10-octahydro-2,6a-methano[1,4]diazonino[9,1,2-cd]indolizine-9-carboxamide]
HIV-1 (IIIB)
  EC50: 2.5 nM
[1]
  CC50 at 5 days: 14100 nM
pLai RLuc reporter virus; [2]
  EC50: 21 nM
pLai RLuc reporter virus; [3]
  EC50: 0.46 nM
